Experimental data reported in publication PMC9254107, “The Toxoplasma glucan phosphatase TgLaforin utilizes a distinct functional mechanism that can be exploited by therapeutic inhibitors” (The Journal of Biological Chemistry, 2022).

Tests used:
TgLaforin [1] = biological target: T1, TgLaforin (Toxoplasma gondii, UniProt S8F2K7); assay: pNPP phosphatase assay
T1 sequence (S8F2K7 1-523): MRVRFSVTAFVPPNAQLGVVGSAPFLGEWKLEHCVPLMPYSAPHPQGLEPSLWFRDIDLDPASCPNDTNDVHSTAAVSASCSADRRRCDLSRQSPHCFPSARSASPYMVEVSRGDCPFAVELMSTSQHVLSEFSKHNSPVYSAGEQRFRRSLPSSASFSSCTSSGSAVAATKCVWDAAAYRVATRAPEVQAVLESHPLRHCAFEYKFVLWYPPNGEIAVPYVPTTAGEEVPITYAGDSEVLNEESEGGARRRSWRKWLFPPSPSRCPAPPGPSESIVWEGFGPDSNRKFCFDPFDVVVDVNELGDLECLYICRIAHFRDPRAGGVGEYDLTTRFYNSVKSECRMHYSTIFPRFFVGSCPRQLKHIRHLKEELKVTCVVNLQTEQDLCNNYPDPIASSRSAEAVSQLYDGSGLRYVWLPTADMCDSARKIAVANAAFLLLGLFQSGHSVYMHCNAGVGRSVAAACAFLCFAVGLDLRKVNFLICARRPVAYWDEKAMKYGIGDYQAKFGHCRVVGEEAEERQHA

TgLaforin [2] = biological target: T1, TgLaforin; assay: Library screening at 10 μM; type: biochemical
TgLaforin [3] = biological target: T1, TgLaforin; assay: Radiolabeled (33P) starch phosphatase assay; type: biochemical; conditions: 33P-labeled insoluble starch
Description: Position-dependent phosphate release from ^33P-labeled starch was performed as previously described ([36], [41], [42], [43]). The substrate for this assay was generated by phosphorylating phosphate-free Arabidopsis sex1-3 starch with β^33P-labeled ATP (Hartmann Analytic) at the C6 and C3 positions sequentially. The starch granules were phosphorylated at the C6 position using purified recombinant StGWD enzyme. Next, the granules were phosphorylated at the C3 position using purified recombinant AtPWD enzyme.
To determine the site-specificity of TgLaforin, TgLaforin (1.3 nM) was incubated separately with 0.6 mg both C6- and C3-^33P-labeled starch in phosphatase buffer (pH 6.5) containing 1 mg/ml bovine serum albumin in a final volume of 150 μl. […] The amount of phosphate released from each starch suspension was quantified by measuring counts per minute (CPM) of the supernatant on a 1900 TR liquid scintillation counter (Packard). […]
(§1) L319-M21-M49 stock solutions were prepared by resuspending the inhibitor in DMSO at a concentration of 20 mM. […] The efficacy of L319-M21-M49 against various phosphatases was determined using the assay conditions described above. […] All reported uncertainties in IC50 values were calculated and presented as standard deviation from the mean of at least three independent replicates, each consisting of three technical replicates. […]

TgLaforin [4] = biological target: T1, TgLaforin; assay: Malachite green phosphatase assay, phosphate release from solubilized potato amylopectin; type: biochemical
Description: Release of phosphate from potato amylopectin was determined as done previously ([23], [24], [42], [93]) with the following modifications. Briefly, phosphate release was monitored using the PiColorLock Phosphate Detection Reagent (Novus Biologicals), a malachite green–based assay. For time course assays, 5 nM recombinant protein was incubated with 90 μg solubilized potato amylopectin (Sigma-Aldrich), supplied as a powder; solubilized at a stock concentration of 5 mg/ml using alcohol/alkaline method (also referred to as the “Roach method” in Ref. ([93])) in phosphatase buffer in a final volume of 80 μl at pH 6.5. […] After 5 min, 8 μl stabilizer solution (0.1 initial reaction volume) was added, and reaction was allowed to develop for 30 min at r.t. before the absorbance of each reaction was measured at 635 nm using a Synergy HTX Multi-Mode Reader (BioTek). Absorbance was converted to pmol Pi release using a Pi absorbance standard curve. […]
as §1

PTP1B = biological target: T2, PTP1B (Homo sapiens, UniProt P18031); assay: Library screening at 10 μM; conditions: read-out: inhibition of PTP1B
T2 sequence (P18031 1-435): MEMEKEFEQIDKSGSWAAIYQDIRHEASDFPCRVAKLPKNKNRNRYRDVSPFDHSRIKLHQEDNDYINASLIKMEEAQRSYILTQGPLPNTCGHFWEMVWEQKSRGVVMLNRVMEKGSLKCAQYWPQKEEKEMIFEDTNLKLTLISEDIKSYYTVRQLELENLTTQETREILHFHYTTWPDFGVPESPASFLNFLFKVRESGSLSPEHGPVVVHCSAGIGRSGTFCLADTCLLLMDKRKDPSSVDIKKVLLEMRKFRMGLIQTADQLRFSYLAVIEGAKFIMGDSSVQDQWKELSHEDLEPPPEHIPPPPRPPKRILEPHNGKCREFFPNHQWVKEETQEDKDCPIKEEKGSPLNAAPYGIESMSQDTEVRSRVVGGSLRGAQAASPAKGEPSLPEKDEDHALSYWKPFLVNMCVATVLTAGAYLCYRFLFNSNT

VHR = VHR (Homo sapiens, UniProt P51452); assay: Library screening at 10 μM; conditions: read-out: inhibition of VHR
Sequence of VHR (P51452 whole entry, species assumed): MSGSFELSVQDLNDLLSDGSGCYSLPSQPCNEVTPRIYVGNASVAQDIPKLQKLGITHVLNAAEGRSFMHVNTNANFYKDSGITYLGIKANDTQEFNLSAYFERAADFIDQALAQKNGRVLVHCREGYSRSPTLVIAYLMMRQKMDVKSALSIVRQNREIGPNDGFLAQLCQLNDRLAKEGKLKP

TgCBM K206A = assay: Differential scanning fluorimetry carbohydrate binding; conditions: DSF
TgCBM = TgCBM (Toxoplasma gondii, UniProt S8F2K7); assay: as above
Description: We next analyzed TgCBM using size-exclusion chromatography coupled with multiangle light scattering (SEC-MALS) to define its oligomerization state. […] To define TgCBM carbohydrate binding, we utilized differential scanning fluorimetry (DSF) ([53], [54]). In the presence of a carbohydrate, an increase in Tm is associated with increased protein stability due to protein–ligand interaction. We incubated TgCBM with the linear oligosaccharide maltohexaose and observed a robust dose-dependent stabilization of TgCBM with an Kd,app = 20 ± 4 mM (Fig. 3E).

TgCBM W278A = assay: as above; conditions: DSF

Structure (SMILES) | IC50 (TgLaforin [1]) | specificity for TgLaforin over other phosphatases (TgLaforin [1]; pNPP assay, other phosphatases VHR, PTP1B, CIP) | mechanism of inhibition (Lineweaver-Burk plot) (TgLaforin [1]; pNPP substrate) | inhibition at 10 µM (TgLaforin [2]) | IC50 (TgLaforin [3]; C3, read-out: IC50 phosphate release from C3 position of starch) | IC50 (TgLaforin [3]; C6, read-out: IC50 phosphate release from C6 position of starch) | IC50 (TgLaforin [4]) | inhibition at 10 µM (PTP1B) | inhibition at 10 µM (VHR) | binding to K206A mutant (TgCBM K206A) | Kd (TgCBM) | binding to W278A mutant (TgCBM W278A)
O=C(Nc1ccc(Oc2ccccc2)cc1)C(=O)Nc1ccccc1NC(=O)C(c1ccccc1)S(=O)(=O)O (stereo not drawn) [L319-21-M49, 2-oxo-2-((2-(2-oxo-2-((4-phenoxyphenyl)amino)acetamido)phenyl)amino)-1-phenylethanesulfonic acid] | 1.5 ± 0.3 µM | > 100 fold | competitive inhibitor | > 90% | 6.7 ± 0.1 µM | 6.5 ± 1.4 µM | 5.1 ± 0.4 µM | < 10% | < 10% | – | – | –
OC[C@H]1O[C@H](O[C@H]2[C@H](O)[C@@H](O)[C@@H](O[C@H]3[C@H](O)[C@@H](O)[C@@H](O[C@H]4[C@H](O)[C@@H](O)[C@@H](O[C@H]5[C@H](O)[C@@H](O)[C@@H](O[C@H]6[C@H](O)[C@@H](O)C(O)O[C@@H]6CO)O[C@@H]5CO)O[C@@H]4CO)O[C@@H]3CO)O[C@@H]2CO)[C@H](O)[C@@H](O)[C@@H]1O (stereo partly drawn) [maltohexaose] | – | – | – | – | – | – | – | – | – | neither mutant was able to bind | 20000 ± 4000 µM | neither mutant was able to bind
